Several values for one entry are separate records, joined by “and”; a condition that tells them apart may be missing. Identical values can stand only once. Like-named read-outs stand apart in the source and are kept apart here.
Tests used:
human ACC1 [1] = molecular target: T1, human ACC1 (Homo sapiens, UniProt Q13085); experiment: Human ACC1 enzyme assay (ADP-Glo); format: biochemical
T1 construct: FLAG (C); made in house; host or cells: baculovirus-infected insect cells (Hi5)

human ACC1 [2] = experiment: Human ACC1 enzyme assay (ADP-Glo); format: biochemical; conditions: for Ratio of IC50s ACC2/ACC1 (respective measurement): pairwise, same dilution series
KM12 = experiment: Tumour cell proliferation, CellTiter-Glo, 96-hour incubation, KM12; format: cell-based
Description: (§1) In accordance with the invention, the substances were tested in cell-based assays for the ability of the substances of inhibiting tumour cell proliferation after a 96-hour incubation with the substance. Cell viability was tested using the CellTiter-Glo® luminescent cell viability assay (Promega). The cells were sown at a density of 2000-5000 cells/well (depending on the cell line) in 100 μl growth medium on 96-well microtiter plates. For each cell line examined, cells were sown on a separate plate to determine the luminescence at t=0 hours and t=96 hours. After overnight incubation at 37° C., the luminescence values for the t=0 samples were determined. The dose plates for the t=96 hours points in time were treated with substances diluted with growth medium. The cells were then incubated at 37° C. for 96 hours, and the luminescence values for the t=96 hours samples were then determined. For data analysis, the t=0 values were subtracted from the t=96 hours values for treated and untreated samples. The differences in luminescence in percent between substance-treated samples and control values were used to determine the growth inhibition in percent.
(§2) The substances were tested in the following cell lines which represent the stated indications in an exemplary manner: […]

PC3 = experiment: Tumour cell proliferation, CellTiter-Glo, 96-hour incubation, PC3; format: cell-based
Description: as §1, §2

H460 = experiment: Tumour cell proliferation, CellTiter-Glo, 96-hour incubation, H460; format: cell-based
Description: as §1, §2

MCF7 = experiment: Tumour cell proliferation, CellTiter-Glo, 96-hour incubation, MCF7; format: cell-based
Description: as §1, §2

Myzus persicae = experiment: Myzus test (MYZUPE spray treatment); format: in vivo; conditions: Myzus persicae, 144 h; for pest or weed control at 500 g/ha: read-out: effect (kill of aphids)
Excerpt: Disks of Chinese cabbage (Brassica pekinensis) infested by all stages of the green peach aphid (Myzus persicae) are sprayed with an active compound formulation of the desired concentration.

Tetranychus urticae = experiment: Tetranychus test, OP-resistant (TETRUR spray treatment); format: in vivo; conditions: Tetranychus urticae, 144 h; for pest or weed control at 100 g/ha: read-out: effect (kill of spider mites)
human ACC2 = human ACC2 (Homo sapiens, UniProt O00763); experiment: Human ACC2 enzyme assay (ADP-Glo); conditions: ACC 2 IC50, individual measurements
Chain of human ACC2 (O00763 27-2458 limits assumed): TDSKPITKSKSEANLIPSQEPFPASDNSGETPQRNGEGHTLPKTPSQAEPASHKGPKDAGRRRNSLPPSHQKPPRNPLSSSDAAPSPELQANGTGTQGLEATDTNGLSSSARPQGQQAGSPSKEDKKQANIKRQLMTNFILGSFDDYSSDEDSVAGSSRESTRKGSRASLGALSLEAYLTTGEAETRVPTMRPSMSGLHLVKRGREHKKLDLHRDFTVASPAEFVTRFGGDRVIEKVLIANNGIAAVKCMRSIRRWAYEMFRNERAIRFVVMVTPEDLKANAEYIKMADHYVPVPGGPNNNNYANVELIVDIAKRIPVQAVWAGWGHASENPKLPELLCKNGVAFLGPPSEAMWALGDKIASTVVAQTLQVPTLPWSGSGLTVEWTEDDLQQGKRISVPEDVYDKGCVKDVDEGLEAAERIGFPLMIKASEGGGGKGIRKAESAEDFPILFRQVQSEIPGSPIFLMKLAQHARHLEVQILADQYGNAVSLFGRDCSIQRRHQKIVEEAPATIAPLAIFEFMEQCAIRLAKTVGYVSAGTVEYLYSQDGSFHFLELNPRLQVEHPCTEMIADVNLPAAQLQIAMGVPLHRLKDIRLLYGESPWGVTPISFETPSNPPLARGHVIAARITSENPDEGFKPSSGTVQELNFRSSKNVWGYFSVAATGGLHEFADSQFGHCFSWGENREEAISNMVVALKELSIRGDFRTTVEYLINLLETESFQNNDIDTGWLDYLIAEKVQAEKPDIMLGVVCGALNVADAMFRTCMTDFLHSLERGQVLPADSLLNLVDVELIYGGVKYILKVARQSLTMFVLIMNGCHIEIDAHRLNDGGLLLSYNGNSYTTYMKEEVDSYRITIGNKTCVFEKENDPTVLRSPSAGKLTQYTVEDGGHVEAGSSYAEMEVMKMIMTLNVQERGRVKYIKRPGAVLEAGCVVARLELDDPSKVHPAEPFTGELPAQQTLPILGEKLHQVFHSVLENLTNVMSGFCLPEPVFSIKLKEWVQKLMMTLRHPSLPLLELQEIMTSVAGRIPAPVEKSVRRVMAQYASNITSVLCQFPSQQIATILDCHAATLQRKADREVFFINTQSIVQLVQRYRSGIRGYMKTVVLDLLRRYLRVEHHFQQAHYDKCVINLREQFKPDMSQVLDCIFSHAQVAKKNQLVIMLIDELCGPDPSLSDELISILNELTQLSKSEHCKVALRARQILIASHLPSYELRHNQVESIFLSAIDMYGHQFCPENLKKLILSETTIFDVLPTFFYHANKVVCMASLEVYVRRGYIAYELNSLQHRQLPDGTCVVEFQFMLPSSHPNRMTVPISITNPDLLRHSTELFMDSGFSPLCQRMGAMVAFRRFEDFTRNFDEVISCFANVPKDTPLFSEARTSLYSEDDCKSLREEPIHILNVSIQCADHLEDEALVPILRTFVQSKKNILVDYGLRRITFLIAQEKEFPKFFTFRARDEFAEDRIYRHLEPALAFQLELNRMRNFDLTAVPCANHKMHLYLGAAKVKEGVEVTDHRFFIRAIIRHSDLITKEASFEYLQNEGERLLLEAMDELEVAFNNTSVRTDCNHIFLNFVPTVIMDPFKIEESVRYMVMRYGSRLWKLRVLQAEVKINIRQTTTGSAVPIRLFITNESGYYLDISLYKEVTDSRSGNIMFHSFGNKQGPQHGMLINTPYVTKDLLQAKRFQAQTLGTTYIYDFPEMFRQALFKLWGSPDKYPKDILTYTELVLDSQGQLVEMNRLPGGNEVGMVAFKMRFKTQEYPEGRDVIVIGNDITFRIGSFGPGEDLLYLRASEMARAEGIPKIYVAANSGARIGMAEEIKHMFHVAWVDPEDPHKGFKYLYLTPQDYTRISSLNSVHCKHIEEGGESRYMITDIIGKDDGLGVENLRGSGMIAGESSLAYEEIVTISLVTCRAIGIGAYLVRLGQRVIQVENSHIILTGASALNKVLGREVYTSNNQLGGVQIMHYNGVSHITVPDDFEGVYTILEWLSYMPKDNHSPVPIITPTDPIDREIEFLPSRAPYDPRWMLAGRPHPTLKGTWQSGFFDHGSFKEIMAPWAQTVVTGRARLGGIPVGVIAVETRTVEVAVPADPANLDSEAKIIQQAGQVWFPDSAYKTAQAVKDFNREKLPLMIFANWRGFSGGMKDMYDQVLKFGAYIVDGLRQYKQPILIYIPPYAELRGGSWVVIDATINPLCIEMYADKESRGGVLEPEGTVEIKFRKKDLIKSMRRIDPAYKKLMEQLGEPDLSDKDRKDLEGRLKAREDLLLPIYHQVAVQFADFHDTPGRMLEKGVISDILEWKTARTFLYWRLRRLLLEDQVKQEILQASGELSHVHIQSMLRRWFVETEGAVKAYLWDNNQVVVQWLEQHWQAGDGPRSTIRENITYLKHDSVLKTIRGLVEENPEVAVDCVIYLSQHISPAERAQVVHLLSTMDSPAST

Phaedon cochleariae = experiment: Phaedon test (PHAECO spray treatment); conditions: for effect (kill of beetle larvae): 500 g/ha, after 7 days
[3] = Octanol/water distribution coefficient (logP/D), isocratic HPLC method; format: physicochemical; conditions: pH 7.4
Excerpt: Assay for Determining the Octanol/Water Distribution Coefficient (logP/D):
The distribution coefficient octanol/water P or D is a key parameter for estimating membrane penetration and permeability. It is defined as the ratio of the equilibrium concentrations of a substance in the two-phase system octanol/water.
It is usually stated in form of the decadic logarithm (logP or logD).
logP describes the distribution behaviour of a substance exclusively present in its neutral form. logD describes the distribution behaviour of a substance at a certain pH; depending on the ionization constant pKa of the substance, some of the substance may be present in ionic form, and some in neutral form.
The logP/D of the active compounds was determined using an isocratic HPLC method (HPLC=high performance liquid chromatography) (literature: OECD Guideline for Testing of Chemicals No. 117). The method is based on the correlation of the HPLC retention time of the test substance to that of reference substances with known distribution coefficients.
The test substance was employed as a 10 mM solution in DMSO (DMSO=dimethyl sulphoxide). 10 μl of this solution were made up to 100 μl with a methanol/water mixture in a ratio of 7+3.
The nine reference substances were dissolved individually in methanol. 100 μl each of the stock solutions were added to an HPLC vial and mixed with 300 μl of water.
A formamide solution was used to determine the hold-up time. To this end, 7 mg of formamide were dissolved in 10 ml of methanol. 100 μl of this stock solution were mixed with 500 μl of methanol and 200 μl of water.
All solutions were chromatographed using a flow rate of 1.00 ml/min.
Injection Protocol: formamide, references, test substance 1, test substance 2, . . . , formamide, references.
Evaluation of the retention times was carried out in a diode array detector (DAD) at 200-400 nm Via the molecular mass, the identity of the test substance was checked using the downstream mass spectrometer.
The HPLC run was evaluated using the Waters software Masslynx 4.1.
The logP/D values were calculated using the software “POW Determination” (proprietary development).

[4] = Membrane affinity logMA (MA-Transil); format: physicochemical; conditions: buffer pH 7.4
[5] = Plasma protein binding by equilibrium dialysis, human; format: in vitro ADME; conditions: read-out: fu (human)
Description: (§3) The binding of test substances to plasma proteins is determined by equilibrium dialysis by means of the Ht-dialysis apparatus (96-well) made of Teflon and a semipermeable membrane (regenerated cellulose, MWCO 12-14K). This separates 150 μl each of a plasma side and a buffer side (50 mM phosphate buffer). The test substance is added in 2 concentrations (usually 3 and 0.3 μM) to the plasma side and binds to plasma proteins. The unbound fraction of the test substance passes through the membrane and is distributed on either side until equilibrium is established (after approx. 6-8 h at 37° C.). The substance concentration on the buffer side and the plasma side is determined by LC-MS analysis. For this, both sides are brought by dilution with buffer or plasma to the same matrix (10% plasma) and then precipitated with methanol. The free (unbound) fraction (fu) is calculated from the quotient of the buffer and plasma concentration. Stability tests and recovery tests are run concurrently as controls. In addition, the substance in buffer is dialysed against buffer, to check the nonspecific binding to apparatus and membrane and establishment of equilibrium. Because during incubation the osmotic pressure of the plasma proteins leads to dilution of the plasma (volume shift), this possible error is determined by weighing blank plasma samples and is included in the calculation of fu. Establishment of equilibrium and plasma stability should have a value not lower than 80% and the recovery should be at least 30%. A free fraction of <1% is regarded as high, between 1 and 10% as moderate and >10% as low plasma protein binding.

[6] = Plasma protein binding by equilibrium dialysis, mouse; format: in vitro ADME; conditions: read-out: fu (mouse)
Description: as §3

[7] = Plasma protein binding by equilibrium dialysis, rat; format: in vitro ADME; conditions: read-out: fu (rat)
Description: as §3

[8] = molecular target: human serum albumin (HSA) (Homo sapiens, UniProt P02768); experiment: Protein binding to human serum albumin (HSA-Transil)
Chain of human serum albumin (HSA) (P02768 25-609): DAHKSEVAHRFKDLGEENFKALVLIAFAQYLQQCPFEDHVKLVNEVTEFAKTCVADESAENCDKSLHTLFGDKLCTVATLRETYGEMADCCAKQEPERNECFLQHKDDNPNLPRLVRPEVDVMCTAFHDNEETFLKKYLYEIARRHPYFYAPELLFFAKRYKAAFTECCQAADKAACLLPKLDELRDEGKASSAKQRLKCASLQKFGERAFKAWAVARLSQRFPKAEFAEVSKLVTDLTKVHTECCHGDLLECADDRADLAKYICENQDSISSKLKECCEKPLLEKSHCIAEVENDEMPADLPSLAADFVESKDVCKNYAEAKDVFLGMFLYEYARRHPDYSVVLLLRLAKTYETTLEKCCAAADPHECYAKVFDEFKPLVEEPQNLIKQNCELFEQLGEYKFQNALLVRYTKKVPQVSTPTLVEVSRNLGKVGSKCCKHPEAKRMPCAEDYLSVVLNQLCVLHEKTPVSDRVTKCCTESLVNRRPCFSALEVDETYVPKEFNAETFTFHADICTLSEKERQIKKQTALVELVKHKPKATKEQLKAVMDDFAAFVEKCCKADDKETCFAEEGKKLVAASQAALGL

Spodoptera frugiperda = Spodoptera frugiperda test (SPODFR spray treatment); format: in vivo; conditions: 500 g/ha, after 7 days
Meloidogyne incognita = Meloidogyne incognita test (MELGIN); format: in vivo; conditions: 20 ppm, after 14 days
Description: • Solvent: 125 parts by weight of acetone
Containers are filled with sand, solution of active compound, Meloidogyne incognita egg/larvae suspension and lettuce seeds. The lettuce seeds germinate and the plants develop. On the roots, galls are formed. After 14 days, the nematicidal effect in % is determined by the formation of galls. 100% means that no galls have been found; 0% means that the number of galls on the treated plants corresponds to the untreated control.

[9] = individual measurements, read-out: ACC 1 IC50
[10] = Homo sapiens, KM12, 96 h; read-out: KM12 IC50
[11] = Homo sapiens, PC-3, 96 h; read-out: PC3 IC50
[12] = Homo sapiens, NCI-H460, 96 h; read-out: H460 IC50
[13] = Homo sapiens, MCF7, 96 h; read-out: MCF7 IC50
[14] = ACC 1 IC50, individual measurements
[15] = Homo sapiens, MCF7, 96 h, read-out: MCF7 IC50

SMILES	IC50 (human ACC1 [1]; [9])	Selectivity ACC1 vs. ACC2 (mean of the individual measurements ± standard deviation) (human ACC1 [2])	IC50 (KM12; [10])	IC50 (PC3; [11])	IC50 (H460; [12])	IC50 (MCF7; [13])	pest or weed control at 500 g/ha (Myzus persicae; 500 g/ha, after 6 days)	pest or weed control at 100 g/ha (Tetranychus urticae; 100 g/ha, after 6 days)	IC50 (human ACC2)	effect (kill of beetle larvae) (Phaedon cochleariae)	Ratio of IC50s ACC2/ACC1 (respective measurement) (human ACC1 [2])	chromatographic logP [3]	logMA [4]	Kd [8]	further results
Cc1ccc(-c2ccc(F)c(F)c2)cc1C1=C(O)C2(CCC(F)(F)CC2)NC1=O [Example 1-6, 3-(3′,4′-Difluoro-4-methylbiphenyl-3-yl)-8,8-difluoro-4-hydroxy-1-azaspiro[4.5]dec-3-en-2-one]	133 nM and 107 nM	51.9 ± 22.8	257 nM	158 nM	371 nM	45 nM	100%	90%	3870 nM and 8030 nM	100%					inhibition at 20 g/ha (Myzus persicae; 20 g/ha, 6 d, read-out: % activity MYZUPE): 100%; inhibition at 20 g/ha (Tetranychus urticae; 20 g/ha, 6 d, read-out: % activity TETRUR): 90%; melting point: 223 °C; inhibition at 20 g/ha (Phaedon cochleariae; Phaedon cochleariae, 168 h, read-out: % activity PHAECO): 67%
Cc1ccc(-c2ccc(Cl)c(F)c2)cc1C1=C(O)C2(CCCCC2)NC1=O [V.1-b, 3-(4′-Chloro-3′-fluoro-4-methylbiphenyl-3-yl)-4-hydroxy-1-azaspiro[4.5]dec-3-en-2-one, reference compound]	43 nM	46.9				22 nM			1950 nM		45.9	2.8	2.55 (2.4-2.9, n = 4)	3500 nM	fraction unbound [5]: 0.004; fraction unbound [6]: 0.0746; fraction unbound [7]: 0.0612
O=C1NC2(CCC(F)(F)CC2)C(O)=C1c1cc(-c2ccc(Cl)cc2)ccc1Cl [Example 1-4, 3-(4,4′-Dichlorobiphenyl-3-yl)-8,8-difluoro-4-hydroxy-1-azaspiro[4.5]dec-3-en-2-one]	121 nM and 91 nM	39.7 ± 5.7	319 nM	231 nM	481 nM	86 nM	90%	90%	5480 nM and 3110 nM	100%	45.5 and 34.0				effect (kill of caterpillars) (Spodoptera frugiperda): 100%
Cc1ccc(-c2ccc(Cl)c(F)c2)cc1C1=C(O)[C@]2(CC[C@H](C(F)(F)F)CC2)NC1=O [V.1-a, (5s,8s)-3-(4′-Chloro-3′-fluoro-4-methylbiphenyl-3-yl)-4-hydroxy-8-(trifluoromethyl)-1-azaspiro[4.5]dec-3-en-2-one, reference compound]	67 nM and 59 nM	9.4 ± 0.8	245 nM	398 nM	573 nM	30 nM			580 nM and 610 nM		8.6 and 10.3	2.55	2.55 (2.4-2.7, n = 2)	1430 nM	
Cc1ccc(-c2ccc(Cl)cc2)c(C)c1C1=C(O)C2(CCC(F)(F)CC2)NC1=O [Example 1-5, 3-(4′-Chloro-2,4-dimethylbiphenyl-3-yl)-8,8-difluoro-4-hydroxy-1-azaspiro[4.5]dec-3-en-2-one]		12.4							2700 nM		12.4				IC50 (human ACC1 [1]; [14]): 218 nM; IC50 (KM12; Homo sapiens, KM12, 96 h, read-out: KM12 IC50): 668 nM; IC50 (PC3; Homo sapiens, PC-3, 96 h, read-out: PC3 IC50): 506 nM; IC50 (H460; Homo sapiens, NCI-H460, 96 h, read-out: H460 IC50): 769 nM; IC50 (MCF7; [15]): 205 nM; pest or weed control at 500 g/ha (Myzus persicae): 100%; pest or weed control at 100 g/ha (Tetranychus urticae): 90%; nematicidal effect (formation of galls) (Meloidogyne incognita): 100%; melting point: 141 to 145 °C
Cc1ccc(-c2ccc(F)cc2)cc1C1=C(O)C2(CCC(F)(F)CC2)NC1=O [Example 1-3, 8,8-Difluoro-3-(4′-fluoro-4-methylbiphenyl-3-yl)-4-hydroxy-1-azaspiro[4.5]dec-3-en-2-one]	166 nM and 241 nM	>101.8 ± 19.0	578 nM	476 nM	678 nM	209 nM	90%	100%	> 20000 nM	100%	>120.8 and >82.8				effect (kill of caterpillars) (Spodoptera frugiperda): 100%
Cc1ccc(-c2ccc(Cl)cc2)cc1C1=C(O)C2(CCCCC2)NC1=O [V.2-b, 3-(4′-Chloro-4-methylbiphenyl-3-yl)-4-hydroxy-1-azaspiro[4.5]dec-3-en-2-one, reference compound]		12.8 ± 1.3							2400 nM and 2760 nM		11.5 and 14.1	2.77	2.05 (1.9-2.2, n = 2)	3220 nM	IC50 (human ACC1 [1]; [14]): 208 nM and 196 nM; IC50 (MCF7; [15]): 41 nM; fraction unbound [5]: 0.0036; fraction unbound [6]: 0.0281; fraction unbound [7]: 0.0071
